Source: the supplement of paper PMC10307832

What was measured:
Experiment in all cases: relative viability (nuclei count vs DMSO), 5 days (fraction); higher = more cells survive
XMD13-2 + Palbociclib = compound: C1CC1C(=O)NC2=NNC3=C2C=CC(=C3)C4=CC(=CC=C4)C(=O)NC5CC5 [XMD13-2] + CC(=O)c1c(C)c2cnc(Nc3ccc(N4CCNCC4)cn3)nc2n(C2CCCC2)c1=O [Palbociclib] (partner 0.5 µM)
Summary of the method: (§1)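 Dosing by pin tool came one day after lung cancer cell lines were seeded in 1536-well plates, using either one drug or a fixed anchor-drug dose plus five library-drug doses (not always all listed) in √10 steps. After 5 days, nuclei were counted on 4× images. Relative viability is treated-well nuclei count divided by vehicle-well nuclei count, and values are medians of duplicate plates.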

XMD13-2 + Lapatinib = compound: C1CC1C(=O)NC2=NNC3=C2C=CC(=C3)C4=CC(=CC=C4)C(=O)NC5CC5 [XMD13-2] + CS(=O)(=O)CCNCc1ccc(-c2ccc3ncnc(Nc4ccc(OCc5cccc(F)c5)c(Cl)c4)c3c2)o1 [Lapatinib] (partner 2 µM)
Summary of the method: as §1

Dasatinib + Tozasertib = compound: Cc1nc(Nc2ncc(C(=O)Nc3c(C)cccc3Cl)s2)cc(N2CCN(CCO)CC2)n1 [Dasatinib] + Cc1cc(Nc2cc(N3CCN(C)CC3)nc(Sc3ccc(NC(=O)C4CC4)cc3)n2)n[nH]1 [Tozasertib] (partner 0.1 µM)
Summary of the method: as §1

Dasatinib + Alpelisib = compound: Cc1nc(Nc2ncc(C(=O)Nc3c(C)cccc3Cl)s2)cc(N2CCN(CCO)CC2)n1 [Dasatinib] + Cc1nc(NC(=O)N2CCC[C@H]2C(N)=O)sc1-c1ccnc(C(C)(C)C(F)(F)F)c1 [Alpelisib] (partner 2 µM)
Summary of the method: as §1

Cell Line | relative viability (XMD13-2 + Palbociclib; first compound 0.05 µM) | relative viability (XMD13-2 + Palbociclib; first compound 0.1581 µM) | relative viability (XMD13-2 + Palbociclib; first compound 0.5 µM) | relative viability (XMD13-2 + Palbociclib; first compound 1.581 µM) | relative viability (XMD13-2 + Palbociclib; first compound 5 µM) | relative viability (XMD13-2 + Lapatinib; first compound 0.05 µM) | relative viability (XMD13-2 + Lapatinib; first compound 0.1581 µM) | relative viability (XMD13-2 + Lapatinib; first compound 0.5 µM) | relative viability (XMD13-2 + Lapatinib; first compound 1.581 µM) | relative viability (XMD13-2 + Lapatinib; first compound 5 µM) | relative viability (Dasatinib + Tozasertib; first compound 0.005 µM) | relative viability (Dasatinib + Tozasertib; first compound 0.01581 µM) | relative viability (Dasatinib + Tozasertib; first compound 0.05 µM) | relative viability (Dasatinib + Tozasertib; first compound 0.1581 µM) | relative viability (Dasatinib + Tozasertib; first compound 0.5 µM) | relative viability (Dasatinib + Alpelisib; first compound 0.005 µM) | relative viability (Dasatinib + Alpelisib; first compound 0.01581 µM) | relative viability (Dasatinib + Alpelisib; first compound 0.05 µM) | relative viability (Dasatinib + Alpelisib; first compound 0.1581 µM) | relative viability (Dasatinib + Alpelisib; first compound 0.5 µM)
HCC-827 | 0.512 | 0.462 | 0.439 | 0.459 | 0.377 | 0.19 | 0.2 | 0.172 | 0.243 | 0.2 | 0.457 | 0.409 | 0.399 | 0.177 | 0.101 | 1.01 | 0.737 | 0.757 | 0.374 | 0.123
NCI-H1993 | 0.641 | 0.484 | 0.722 | 0.606 | 0.547 | 0.904 | 0.87 | 0.931 | 0.765 | 0.706 | 0.524 | 0.435 | 0.563 | 0.448 | 0.377 | 0.702 | 0.66 | 0.653 | 0.521 | 0.587
NCI-H647 | 0.491 | 0.384 | 0.408 | 0.5 | 0.225 | 1.14 | 1.31 | 1.22 | 1.02 | 0.369 | 0.265 | 0.288 | 0.128 | 0.0973 | 0.0474 | 0.779 | 0.419 | 0.319 | 0.166 | 0.146
NCI-H460 | 0.183 | 0.167 | 0.21 | 0.233 | 0.286 | 1.23 | 0.925 | 1.27 | 0.908 | 0.0203 | 0.299 | 0.425 | 0.302 | 0.338 | 0.177 | 0.286 | 0.179 | 0.159 | 0.122 | 0.0551
EMC-BAC-2 | 0.558 | 0.519 | 0.536 | 0.497 | 0.47 | 1.03 | 0.866 | 0.92 | 0.879 | 0.532 | 0.271 | 0.205 | 0.226 | 0.179 | 0.164 | 0.632 | 0.478 | 0.466 | 0.285 | 0.194
NCI-H23 | 0.572 | 0.514 | 0.502 | 0.58 | 0.658 | 1.33 | 0.964 | 0.996 | 1.09 | 1.27 | 0.318 | 0.309 | 0.347 | 0.302 | 0.318 | 0.597 | 0.549 | 0.615 | 0.403 | 0.323
NCI-H1793 | 0.357 | 0.34 | 0.327 | 0.324 | 0.273 | 0.885 | 0.609 | 1.03 | 0.601 | 0.826 | 0.231 | 0.19 | 0.181 | 0.146 | 0.147 | 0.554 | 0.45 | 0.545 | 0.512 | 0.443
A-427 | 0.568 | 0.499 | 0.573 | – | 0.473 | 1.1 | 1.01 | 1.1 | 1.01 | 1.05 | 0.223 | 0.214 | 0.176 | 0.142 | 0.156 | 0.961 | 1.06 | 1 | 0.573 | 0.533
ABC-1 | 0.72 | 0.606 | 0.78 | – | 0.556 | 1.42 | 1.29 | 1.12 | 1.2 | 1.23 | 0.174 | 0.217 | 0.172 | 0.15 | 0.154 | 0.978 | 0.776 | 0.888 | 0.714 | 0.571
NCI-H322M | 0.494 | 0.491 | 0.498 | – | 0.49 | 0.641 | 0.528 | 0.593 | 0.605 | 0.724 | 0.465 | 0.356 | 0.289 | 0.232 | 0.176 | 0.855 | 0.773 | 0.696 | 0.459 | 0.203
COR-L23 | 0.248 | 0.298 | 0.295 | 0.294 | 0.365 | 1.26 | 1.09 | 0.929 | 1.08 | 0.91 | 0.199 | 0.159 | 0.173 | 0.119 | 0.109 | 0.591 | 0.5 | 0.523 | 0.347 | 0.216
NCI-H2085 | 0.488 | 0.477 | 0.481 | 0.429 | 0.472 | 0.821 | 0.776 | 0.87 | 0.809 | 0.699 | 0.737 | 0.641 | 0.564 | 0.229 | 0.214 | 0.874 | 0.794 | 0.596 | 0.292 | 0.2
NCI-H2087 | 0.248 | 0.261 | 0.184 | 0.184 | 0.258 | 1.06 | 1.48 | 1.01 | 1.23 | 0.737 | 0.289 | 0.21 | 0.246 | 0.185 | 0.113 | 0.988 | 0.957 | 1.34 | 1.01 | 0.613
HCC-366 | 0.466 | 0.362 | 0.473 | 0.407 | 0.403 | 1.3 | 1.04 | 1.07 | 1.09 | 1.12 | 0.115 | 0.109 | 0.109 | 0.0407 | 0.0371 | 0.096 | 0.174 | 0.141 | 0.151 | 0.103
NCI-H2126 | 0.385 | 0.398 | 0.309 | 0.336 | 0.323 | 0.728 | 0.767 | 0.792 | 0.706 | 0.765 | 0.832 | 0.732 | 0.773 | 0.654 | 0.348 | 0.761 | 0.643 | 0.65 | 0.518 | 0.339
SK-LU-1 | 0.42 | 0.393 | 0.38 | 0.378 | 0.319 | 1.14 | 0.97 | 0.971 | 0.707 | 0.536 | 0.272 | 0.194 | 0.156 | 0.101 | 0.0919 | 0.623 | 0.399 | 0.318 | 0.2 | 0.234
